According to patent publication US20130225517A1, “Therapeutic Compounds” (University of Iowa Research Foundation, priority 2012, published 2013):
pIC50: −log10 of the molar value. Like-named read-outs stand apart in the source and are kept apart here.

Key:
Dnmt1 [1] = molecular target: T1, Dnmt1 (Homo sapiens, UniProt P26358); experiment: Glal restriction endonuclease-coupled DNA methylation assay (Test A); assay type: biochemical; conditions: for IC50: Table 1, Glal restriction endonuclease-coupled DNA methylation assay, read-out: IC50 (μM), Dnmt1 inhibition activity
Description: (§1) A Glal restriction endonuclease-coupled DNA methylation assay was used to assess Dnmt1 activity (Syeda et al, J Biol Chem 2011, 286, 15344-15351). Upon methylation of the DNA substrate by Dnmt1, the DNA substrate is cleaved by Glal, freeing a 5′ fluorophore from the 3′ quencher, and generating a fluorescence signal. Inhibition of Dnmt1 results in a loss of fluorescence generation.
as §1, with “assay” for “assay was used”
First, laccaic acid was screened against the methyl-specific restriction endonuclease Glal (SibEnzyme, West Roxbury, Mass.) to ensure that the compound was not inhibiting Glal rather than Dnmt1. […] Increasing concentrations of laccaic acid A were used in the endonuclease-coupled DNA methylation assay to determine an IC50 value for the compound. […] Lastly, differential scanning fluorimetry was used to determine if laccaic acid A was a direct binder of Dnmt1 in the absence of the DNA or S-adenosyl methionine substrate.

[2] = tested on: methyl-specific restriction endonuclease Glal; experiment: Counter-screen against methyl-specific restriction endonuclease Glal; assay type: biochemical; conditions: under all conditions tested
Method: (§2) Laccaic acid A was further validated as a Dnmt1 inhibitor in three assays. First, laccaic acid was screened against the methyl-specific restriction endonuclease Glal (SibEnzyme, West Roxbury, Mass.) to ensure that the compound was not inhibiting Glal rather than Dnmt1. Under all conditions tested, Glal had full activity in the presence of laccaic acid A. Next, the concentration dependence of laccaic acid A inhibition on Dnmt1 activity was assessed. Increasing concentrations of laccaic acid A were used in the endonuclease-coupled DNA methylation assay to determine an IC50 value for the compound. Laccaic acid A was determined to have an IC50 value of 400 nM. […] Lastly, differential scanning fluorimetry was used to determine if laccaic acid A was a direct binder of Dnmt1 in the absence of the DNA or S-adenosyl methionine substrate.

Dnmt1 [3] = molecular target: T1, Dnmt1; experiment: Differential scanning fluorimetry, direct binding to Dnmt1; conditions: increase from 44° C.; absence of the DNA or S-adenosyl methionine substrate
Method: as §2

T1 sequence (P26358 whole entry): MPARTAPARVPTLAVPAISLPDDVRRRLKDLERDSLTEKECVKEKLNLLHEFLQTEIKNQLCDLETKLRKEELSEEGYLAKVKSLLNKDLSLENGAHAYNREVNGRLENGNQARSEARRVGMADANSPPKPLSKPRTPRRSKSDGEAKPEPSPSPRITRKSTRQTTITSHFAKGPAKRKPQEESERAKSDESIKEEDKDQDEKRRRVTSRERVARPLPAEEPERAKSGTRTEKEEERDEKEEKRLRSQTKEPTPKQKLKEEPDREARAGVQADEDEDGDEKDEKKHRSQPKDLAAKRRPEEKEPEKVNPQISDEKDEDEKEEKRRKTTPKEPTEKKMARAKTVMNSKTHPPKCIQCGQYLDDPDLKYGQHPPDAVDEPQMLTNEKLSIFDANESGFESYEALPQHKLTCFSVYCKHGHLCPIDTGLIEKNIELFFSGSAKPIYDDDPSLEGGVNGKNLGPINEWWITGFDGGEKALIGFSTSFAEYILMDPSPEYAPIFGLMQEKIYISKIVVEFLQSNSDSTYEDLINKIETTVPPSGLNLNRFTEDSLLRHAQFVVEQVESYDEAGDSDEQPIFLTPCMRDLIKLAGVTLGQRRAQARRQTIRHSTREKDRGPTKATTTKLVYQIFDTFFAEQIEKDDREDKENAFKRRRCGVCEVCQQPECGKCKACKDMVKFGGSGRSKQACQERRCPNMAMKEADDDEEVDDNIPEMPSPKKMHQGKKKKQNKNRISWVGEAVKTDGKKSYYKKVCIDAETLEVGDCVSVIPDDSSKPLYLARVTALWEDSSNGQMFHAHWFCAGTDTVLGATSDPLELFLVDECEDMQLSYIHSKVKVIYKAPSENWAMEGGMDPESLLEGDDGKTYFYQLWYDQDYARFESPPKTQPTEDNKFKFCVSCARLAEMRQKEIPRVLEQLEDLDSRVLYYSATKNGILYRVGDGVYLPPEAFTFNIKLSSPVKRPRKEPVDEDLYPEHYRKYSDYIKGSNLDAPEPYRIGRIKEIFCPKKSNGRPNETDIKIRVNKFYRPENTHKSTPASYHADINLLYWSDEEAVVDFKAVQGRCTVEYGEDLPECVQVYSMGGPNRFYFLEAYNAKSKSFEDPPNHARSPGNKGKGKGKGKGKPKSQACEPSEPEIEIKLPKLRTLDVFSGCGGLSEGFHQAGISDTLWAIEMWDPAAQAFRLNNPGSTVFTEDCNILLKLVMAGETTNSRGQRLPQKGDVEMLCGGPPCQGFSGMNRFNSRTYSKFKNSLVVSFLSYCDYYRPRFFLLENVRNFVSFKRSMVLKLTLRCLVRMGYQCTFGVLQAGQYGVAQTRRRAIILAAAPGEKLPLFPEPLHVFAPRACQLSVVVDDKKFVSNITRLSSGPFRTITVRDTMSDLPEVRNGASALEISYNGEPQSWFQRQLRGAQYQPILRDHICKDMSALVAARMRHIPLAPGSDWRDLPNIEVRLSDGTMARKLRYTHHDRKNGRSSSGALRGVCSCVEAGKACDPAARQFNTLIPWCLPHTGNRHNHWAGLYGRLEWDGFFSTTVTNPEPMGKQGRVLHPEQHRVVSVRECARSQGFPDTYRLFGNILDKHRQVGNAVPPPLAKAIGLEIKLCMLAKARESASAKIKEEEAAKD

Structure (SMILES) | IC50 (Dnmt1 [1]) | further results
CC(=O)NCCc1ccc(O)c(-c2c(O)c(O)c3c(c2O)C(=O)c2c(cc(O)c(C(=O)O)c2C(=O)O)C3=O)c1 [II, Laccaic Acid A] | 2.1 µM | pIC50 (Dnmt1 [1]; increasing concentrations in the endonuclease-coupled DNA methylation assay, read-out: IC50 value, inhibition of Dnmt1 activity): 6.40; fold more potent at inhibition of Dnmt1 than SG14027 (Dnmt1 [1]; ratio of IC50 values, versus SG14027): 5 fold; outcome of high throughput screen for inhibitors of Dnmt1 activity (Dnmt1 [1]; screen of the Spectrum collection (Microsource)): hit; Glal activity in the presence of compound [2]: full activity; observed melting temperature of Dnmt1 after addition of compound (Dnmt1 [3]): 45.7 °C
Oc1cc(Cl)ccc1Oc1ccc(Cl)cc1Cl [III, Triclosan, reference compound] | 3.8 µM | –
O=C(O)c1cc(O)c2c(c1)[C@@H]([C@H]1c3cc(C(=O)O)cc(O)c3C(=O)c3c(O[C@H]4O[C@H](CO)[C@@H](O)[C@H](O)[C@H]4O)cccc31)c1cccc(O[C@H]3O[C@H](CO)[C@@H](O)[C@H](O)[C@H]3O)c1C2=O [IV, Sennoside A, reference compound] | 0.45 µM | –
O=C1c2ccccc2C(=O)c2c1ccc(O)c2O [VI, Alizarin] | 11 µM | –
O=c1c(O)c(-c2ccc(O)c(O)c2)oc2c(O)c(O)cc(O)c12 [VII, Gossypetin] | 2.9 µM | –
O=C1C=CC(=O)c2c(O)cccc21 [VIII, Juglone] | 1.7 µM | –

Now from value to molecule, other results behind:

IC50 (Dnmt1 [1]) | Structure (SMILES) | further results
0.33 µM | O=C(O)C(S)C(S)C(=O)O (centres unmarked) [IX, 2,3-Dimercaptosuccinic Acid, reference compound] | –
0.45 µM | O=C(O)c1cc(O)c2c(c1)[C@@H]([C@@H]1c3cc(C(=O)O)cc(O)c3C(=O)c3c(O[C@H]4O[C@H](CO)[C@@H](O)[C@H](O)[C@H]4O)cccc31)c1cccc(O[C@H]3O[C@H](CO)[C@@H](O)[C@H](O)[C@H]3O)c1C2=O [V, Sennoside B, reference compound] | –
6.1 µM | CSc1nc2cc(Cl)c(Oc3cccc(Cl)c3Cl)cc2[nH]1 [XI, Triclabendazole, reference compound] | –
